{
  "source": "ChEMBL document CHEMBL5241112",
  "about": "“Insights into the recent progress in the medicinal chemistry of pyranopyrimidine analogs” (RSC Med Chem, 2022)",
  "key": {"[1]": {"system": "Escherichia coli", "assay": "Antibacterial activity against Escherichia coli ATCC 25922 assessed as diameter of inhibition zone at 50 mg/ml incubated for 24 hrs by paper disk diffusion method", "assay_type": "functional", "settings": "read-out: DIZ"}, "[2]": {"system": "Klebsiella pneumoniae", "assay": "Antibacterial activity against Klebsiella pneumoniae MGH 78578 assessed as diameter of inhibition zone at 50 mg/ml incubated for 24 hrs by paper disk diffusion method", "assay_type": "functional", "settings": "read-out: DIZ"}, "[3]": {"system": "Aspergillus fumigatus", "assay": "microbe, parasite or virus in culture", "assay_type": "functional", "settings": "ATCC204305, dose 50 mg/ml, time 24 hrs, read-out: DIZ"}, "[4]": {"system": "HCT-116", "assay": "Anticancer activity against human HCT-116 cells assessed as reduction in cell viability incubated for 24 hrs by MTT colorimetric assay", "assay_type": "functional, cell-based", "settings": "HCT-116, 24 h"}, "[5]": {"system": "HepG2", "assay": "Anticancer activity against human HepG2 cells assessed as reduction in cell viability incubated for 24 hrs by MTT colorimetric assay", "assay_type": "functional, cell-based", "settings": "HepG2, 24 h"}, "[6]": {"system": "MCF7", "assay": "Anticancer activity against human MCF7 cells assessed as reduction in cell viability incubated for 24 hrs by MTT colorimetric assay", "assay_type": "functional, cell-based", "settings": "MCF7, 24 h"}, "[7]": {"system": "Staphylococcus aureus", "assay": "Antibacterial activity against Staphylococcus aureus NCTC-7447 assessed as diameter of inhibition zone incubated for 24 hrs by disc diffusion method", "assay_type": "functional"}, "[8]": {"system": "Bacillus cereus", "assay": "Antibacterial activity against Bacillus cereus ATCC-14579 assessed as diameter of inhibition zone incubated for 24 hrs by disc diffusion method", "assay_type": "functional"}, "[9]": {"system": "Serratia marcescens", "assay": "Antibacterial activity against Serratia marcescens IMRU-70 assessed as diameter of inhibition zone incubated for 24 hrs by disc diffusion method", "assay_type": "functional"}, "[10]": {"system": "Proteus mirabilis", "assay": "Antibacterial activity against Proteus mirabilis NTCC-289 assessed as diameter of inhibition zone incubated for 24 hrs by disc diffusion method", "assay_type": "functional"}, "[11]": {"system": "Aspergillus ochraceus", "assay": "Antifungal activity against Aspergillus ochraceus AUCC-230 assessed as diameter of inhibition zone incubated for 24 hrs by disc diffusion method", "assay_type": "functional"}, "[12]": {"system": "Penicillium chrysogenum", "assay": "Antifungal activity against Penicillium chrysogenum AUCC-530 assessed as diameter of inhibition zone incubated for 24 hrs by disc diffusion method", "assay_type": "functional"}, "[13]": {"system": "HepG2", "assay": "Anticancer activity against human HepG2 cells assessed as reduction in cell viability incubated for 48 hrs by MTT assay", "assay_type": "functional, cell-based", "settings": "HepG2, 48 h"}, "[14]": {"system": "Bacillus subtilis", "assay": "Antibacterial activity against Bacillus subtilis assessed as diameter of inhibition zone at 100 ug/ml by disc diffusion method", "assay_type": "functional", "settings": "read-out: DIZ"}, "[15]": {"system": "Staphylococcus aureus", "assay": "Antibacterial activity against Staphylococcus aureus assessed as diameter of inhibition zone at 100 ug/ml by disc diffusion method", "assay_type": "functional", "settings": "read-out: DIZ"}, "[16]": {"system": "Klebsiella pneumoniae", "assay": "Antibacterial activity against Klebsiella pneumoniae assessed as diameter of inhibition zone at 100 ug/ml by disc diffusion method", "assay_type": "functional", "settings": "read-out: DIZ"}, "[17]": {"system": "Escherichia coli", "assay": "Antibacterial activity against Escherichia coli assessed as diameter of inhibition zone at 100 ug/ml by disc diffusion method", "assay_type": "functional", "settings": "read-out: DIZ"}, "[18]": {"target": "Alpha-glucosidase (Saccharomyces cerevisiae S288c, UniProt P53341+P38158+P07265)", "assay": "Inhibition of Saccharomyces cerevisiae alpha-glucosidase assessed as decrease in release of p-nitrophenol using pNPG as substrate incubated for 10 mins by spectroscopic analysis", "assay_type": "protein assay"}, "[19]": {"system": "HepG2", "assay": "Antiproliferative activity against human HepG2 cells assessed as reduction in cell proliferation", "assay_type": "functional, cell-based"}, "[20]": {"system": "MCF7", "assay": "Antiproliferative activity against human MCF7 cells assessed as reduction in cell proliferation", "assay_type": "functional, cell-based"}, "[21]": {"assay": "Antiproliferative activity against human […] cells assessed as reduction in cell proliferation", "assay_type": "functional, cell-based"}, "[22]": {"assay": "Antioxidant activity assessed as DPPH radical scavenging activity", "assay_type": "functional"}, "[23]": {"assay": "Antioxidant activity assessed as H2O2 radical scavenging activity", "assay_type": "functional"}, "[24]": {"system": "MCF7", "assay": "cells", "settings": "Homo sapiens, MCF7, 48 h"}, "[25]": {"assay": "Antioxidant activity assessed as NO radical scavenging activity", "assay_type": "functional"}},
  "note": "pIC50: −log10 of the molar value.",
  "data": [
    {"molecule": "Nc1ncnc2c1C(c1ccc(Cl)cc1)C=C(c1cc3ccccc3oc1=O)O2", "note": "(stereo not drawn)", "values": [
      {"measurement": "zone of inhibition at 50000 µg/mL", "setting": "[1]", "result": 10, "unit": "mm"},
      {"measurement": "zone of inhibition at 50000 µg/mL", "setting": "[2]", "result": 14, "unit": "mm"},
      {"measurement": "zone of inhibition at 50000 µg/mL", "setting": "[3]", "result": 10, "unit": "mm"}
    ]},
    {"molecule": "N#CC(C#N)=C1c2c(-c3ccccc3)n[nH]c2Oc2[nH]c(=S)nc(-c3ccccc3O)c21", "values": [
      {"measurement": "pIC50", "setting": "[4]", "result": 4.65},
      {"measurement": "pIC50", "setting": "[5]", "result": 4.65},
      {"measurement": "pIC50", "setting": "[6]", "result": 4.65}
    ]},
    {"molecule": "CCOC(=O)n1c(=O)nc2c3c(ncn21)Oc1c(c(=O)oc2ccccc12)C3c1ccc(Cl)cc1", "note": "(stereo not drawn)", "values": [
      {"measurement": "diameter of the inhibition zone (DIZ)", "setting": "[7]", "result": 18, "unit": "mm"},
      {"measurement": "diameter of the inhibition zone (DIZ)", "setting": "[8]", "result": 19, "unit": "mm"},
      {"measurement": "diameter of the inhibition zone (DIZ)", "setting": "[9]", "result": 21, "unit": "mm"},
      {"measurement": "diameter of the inhibition zone (DIZ)", "setting": "[10]", "result": 21, "unit": "mm"},
      {"measurement": "diameter of the inhibition zone (DIZ)", "setting": "[11]", "result": 15, "unit": "mm"},
      {"measurement": "diameter of the inhibition zone (DIZ)", "setting": "[12]", "result": 13, "unit": "mm"}
    ]},
    {"molecule": "COc1ccc(C2CC(=O)Oc3[nH]c(=O)[nH]c(=O)c32)cc1OC", "note": "(stereo not drawn)", "values": [
      {"measurement": "pIC50", "setting": "[13]", "result": 5.05}
    ]},
    {"molecule": "COc1ccc(C2CC(=O)Oc3[nH]c(=O)[nH]c(=O)c32)cc1", "note": "(stereo not drawn)", "values": [
      {"measurement": "pIC50", "setting": "[13]", "result": 4.97}
    ]},
    {"molecule": "CCOC(=O)C1=C(C)Oc2nc(C)n(Cc3cn(-c4ccc([N+](=O)[O-])cc4)nn3)c(=O)c2C1c1ccc([N+](=O)[O-])cc1", "note": "(stereo not drawn)", "values": [
      {"measurement": "zone of inhibition at 100 µg/mL", "setting": "[14]", "result": 12.5, "unit": "mm"},
      {"measurement": "zone of inhibition at 100 µg/mL", "setting": "[15]", "result": 14, "unit": "mm"},
      {"measurement": "zone of inhibition at 100 µg/mL", "setting": "[16]", "result": 14, "unit": "mm"},
      {"measurement": "zone of inhibition at 100 µg/mL", "setting": "[17]", "result": 14.5, "unit": "mm"}
    ]},
    {"molecule": "O=C1CC(c2ccc(O)cc2)c2c([nH]c(=O)[nH]c2=O)O1", "note": "(stereo not drawn)", "values": [
      {"measurement": "pIC50", "setting": "[13]", "result": 5.09}
    ]},
    {"molecule": "COc1cc(/C=C/C(=O)C2=C(/C=C/c3ccc(O)c(OC)c3)Oc3[nH]c(=O)[nH]c(=O)c3C2c2cccc([N+](=O)[O-])c2)ccc1O", "note": "(stereo not drawn)", "values": [
      {"measurement": "IC50", "setting": "[18]", "result": 9.7, "unit": "µM"}
    ]},
    {"molecule": "COc1ccc(C2CC(=O)Oc3[nH]c(=O)[nH]c(=O)c32)cc1O", "note": "(stereo not drawn)", "values": [
      {"measurement": "pIC50", "setting": "[13]", "result": 5.06}
    ]},
    {"molecule": "N=c1c2c(ncn1-c1ccccc1O)Oc1ccc3ccccc3c1C2c1cn(-c2ccccc2)nc1-c1ccccc1", "note": "(stereo not drawn)", "values": [
      {"measurement": "pIC50", "setting": "[19]", "result": 5.47},
      {"measurement": "pIC50", "setting": "[20]", "result": 5.57},
      {"measurement": "pIC50", "setting": "[21]", "result": 5.31}
    ]},
    {"molecule": "N#CC1=C(N)Oc2[nH]nc(-c3ccccc3)c2C1c1coc2ccccc2c1=O", "note": "(stereo not drawn)", "values": [
      {"measurement": "IC50", "setting": "[4]", "result": 54.1, "unit": "µg/mL"},
      {"measurement": "IC50", "setting": "[5]", "result": 57.3, "unit": "µg/mL"},
      {"measurement": "IC50", "setting": "[6]", "result": 69.8, "unit": "µg/mL"}
    ]},
    {"molecule": "Nc1ncnc2c1C(c1ccc3c(c1)OCO3)c1ccc(O)cc1O2", "note": "(stereo not drawn)", "values": [
      {"measurement": "IC50", "setting": "[22]", "result": 39.46, "unit": "µg/mL"},
      {"measurement": "IC50", "setting": "[23]", "result": 53.54, "unit": "µg/mL"}
    ]},
    {"molecule": "COc1cc(C2CC(=O)Oc3[nH]c(=O)[nH]c(=O)c32)ccc1O", "note": "(stereo not drawn)", "values": [
      {"measurement": "pIC50", "setting": "[13]", "result": 4.97},
      {"measurement": "pIC50", "setting": "[24]", "result": 5.05}
    ]},
    {"molecule": "Cc1cc(C(C)(C)C)c(O)c(C(C)(C)C)c1", "note": "[BUTYLATED HYDROXYTOLUENE]", "values": [
      {"measurement": "IC50", "setting": "[22]", "result": 37.52, "unit": "µg/mL"},
      {"measurement": "IC50", "setting": "[23]", "result": 65.33, "unit": "µg/mL"},
      {"measurement": "IC50", "setting": "[25]", "result": 56.9, "unit": "µg/mL"}
    ]},
    {"molecule": "CCOC(=O)c1nc2c3c(ncn2n1)Oc1c(c(=O)oc2ccccc12)C3c1ccc(Cl)cc1", "note": "(stereo not drawn)", "values": [
      {"measurement": "diameter of the inhibition zone (DIZ)", "setting": "[7]", "result": 18, "unit": "mm"},
      {"measurement": "diameter of the inhibition zone (DIZ)", "setting": "[8]", "result": 19, "unit": "mm"},
      {"measurement": "diameter of the inhibition zone (DIZ)", "setting": "[9]", "result": 21, "unit": "mm"},
      {"measurement": "diameter of the inhibition zone (DIZ)", "setting": "[10]", "result": 21, "unit": "mm"},
      {"measurement": "diameter of the inhibition zone (DIZ)", "setting": "[11]", "result": 15, "unit": "mm"},
      {"measurement": "diameter of the inhibition zone (DIZ)", "setting": "[12]", "result": 13, "unit": "mm"}
    ]},
    {"molecule": "c1ccc(-c2nn(-c3ccccc3)cc2C2c3c(ccc4ccccc34)Oc3ncn4ncnc4c32)cc1", "note": "(stereo not drawn)", "values": [
      {"measurement": "pIC50", "setting": "[19]", "result": 5.04},
      {"measurement": "pIC50", "setting": "[20]", "result": 5.00},
      {"measurement": "pIC50", "setting": "[21]", "result": 5.31}
    ]}
  ]
}
